Measurements published in article PMC10141580, “Cyclic Dichalcogenides Extend the Reach of Bioreductive Prodrugs to Harness Thiol/Disulfide Oxidoreductases: Applications to seco-Duocarmycins Targeting the Thioredoxin System” (ACS Central Science, 2023).
Read-outs that look alike come from different tables or passages of the source.

Tested on: NCI-60 standardized human tumor cell line panel
Assay: cells
Assay type: cell-based
Conditions: for NCI-60 screening: Log(RedIndex): log10 reductive index vs P-CC60; for GI50: Homo sapiens

## COc1cc2cc(C(=O)N3C[C@@H](CCl)c4c3cc(OC(=O)N3CCN(C(=O)CCC(=O)N5CCN(C)CC5)[C@H]5CSSC[C@H]53)c3ccccc43)[nH]c2c(OC)c1OC [P-SS66C-CBI-TMI]
19 overlapping cell lines
  reductive activation index ratio NCI-60/ProliFiler, mean: 1.8 fold
786-0 (RE) cell line
  NCI-60 screening: Log(RedIndex): 1.22
A498 (RE) cell line
  NCI-60 screening: Log(RedIndex): 1.1
ACHN (RE) cell line
  NCI-60 screening: Log(RedIndex): 1.07
CAKI-1 (RE) cell line
  NCI-60 screening: Log(RedIndex): 0.94
DU-145 (PR) cell line
  NCI-60 screening: Log(RedIndex): 1.27
786-0, 786-0 (RE) cell line, log10 of GI50 in M, read-out: NCI-60 screening: Log(GI50) (converted)
  GI50: 105 nM
786-0, 786-0 (RE) cell line, read-out: NCI-60 screening: Raw GI50
  GI50: 110 nM
786-0, 786-0, read-out: GI50
  GI50: 110 nM
A498, A498 (RE) cell line, log10 of GI50 in M, read-out: NCI-60 screening: Log(GI50) (converted)
  GI50: 219 nM
A498, A498, read-out: GI50
  GI50: 220 nM
A549, A549/ATCC, read-out: GI50
  GI50: 90 nM
A549, cell line A549/ATCC (LC:A549/ATCC), TMI sheet, read-out: NCI-60 screening: Log(GI50) (converted)
  GI50: 89.1 nM
ACHN, ACHN (RE) cell line, log10 of GI50 in M, read-out: NCI-60 screening: Log(GI50) (converted)
  GI50: 42.7 nM
ACHN, read-out: GI50
  GI50: 42 nM
BT-549, BT-549, read-out: GI50
  GI50: 140 nM
BT-549, cell line BT-549 (BR:BT-549), TMI sheet, read-out: NCI-60 screening: Log(GI50) (converted)
  GI50: 145 nM
BT-549, cell line BT-549 (BR:BT-549), TMI sheet, read-out: NCI-60 screening: Raw GI50
  GI50: 140 nM
CAKI-1, CAKI-1 (RE) cell line, log10 of GI50 in M, read-out: NCI-60 screening: Log(GI50) (converted)
  GI50: 174 nM
CAKI-1, Caki-1, read-out: GI50
  GI50: 170 nM
CCRF-CEM, cell line CCRF-CEM (LE:CCRF-CEM), TMI sheet, read-out: NCI-60 screening: Log(GI50) (converted)
  GI50: 269 nM
CCRF-CEM, cell line CCRF-CEM (LE:CCRF-CEM), TMI sheet, read-out: NCI-60 screening: Raw GI50
  GI50: 270 nM
CCRF-CEM, read-out: GI50
  GI50: 270 nM
COLO 205, Colo 205, read-out: GI50
  GI50: 140 nM
COLO 205, cell line COLO 205 (CO:COLO 205), TMI sheet, read-out: NCI-60 screening: Log(GI50) (converted)
  GI50: 145 nM
COLO 205, cell line COLO 205 (CO:COLO 205), TMI sheet, read-out: NCI-60 screening: Raw GI50
  GI50: 140 nM
DU-145, DU-145 (PR) cell line, log10 of GI50 in M, read-out: NCI-60 screening: Log(GI50) (converted)
  GI50: 24.5 nM
DU-145, DU-145, read-out: GI50
  GI50: 25 nM
EKVX, cell line EKVX (LC:EKVX), TMI sheet, read-out: NCI-60 screening: Log(GI50) (converted)
  GI50: 209 nM
EKVX, read-out: GI50
  GI50: 210 nM
HCC 2998, HCC-2998, read-out: GI50
  GI50: 54 nM
HCC 2998, cell line HCC-2998 (CO:HCC-2998), TMI sheet, read-out: NCI-60 screening: Log(GI50) (converted)
  GI50: 53.7 nM
HCT-15, HCT-15, read-out: GI50
  GI50: 240 nM
HCT-15, cell line HCT-15 (CO:HCT-15), TMI sheet, read-out: NCI-60 screening: Log(GI50) (converted)
  GI50: 245 nM
HCT-15, cell line HCT-15 (CO:HCT-15), TMI sheet, read-out: NCI-60 screening: Raw GI50
  GI50: 240 nM
HCT-116, HCT-116, read-out: GI50
  GI50: 150 nM
HCT-116, cell line HCT-116 (CO:HCT-116), TMI sheet, read-out: NCI-60 screening: Log(GI50) (converted)
  GI50: 155 nM
HCT-116, cell line HCT-116 (CO:HCT-116), TMI sheet, read-out: NCI-60 screening: Raw GI50
  GI50: 150 nM
HL-60, HL-60(TB), read-out: GI50
  GI50: 48 nM
HL-60, cell line HL-60(TB) (LE:HL-60(TB)), TMI sheet, read-out: NCI-60 screening: Log(GI50) (converted)
  GI50: 47.9 nM
HOP-62, HOP-62, read-out: GI50
  GI50: 41 nM
HOP-62, cell line HOP-62 (LC:HOP-62), TMI sheet, read-out: NCI-60 screening: Log(GI50) (converted)
  GI50: 41.7 nM
HOP-92, HOP-92, read-out: GI50
  GI50: 180 nM
HOP-92, cell line HOP-92 (LC:HOP-92), TMI sheet, read-out: NCI-60 screening: Log(GI50) (converted)
  GI50: 178 nM
HT-29, HT29, read-out: GI50
  GI50: 140 nM
HT-29, cell line HT29 (CO:HT29), TMI sheet, read-out: NCI-60 screening: Log(GI50) (converted)
  GI50: 141 nM
HT-29, cell line HT29 (CO:HT29), TMI sheet, read-out: NCI-60 screening: Raw GI50
  GI50: 140 nM
Hs-578T, read-out: GI50
  GI50: 290 nM
Hs-578T, read-out: NCI-60 screening: Log(GI50) (converted)
  GI50: 295 nM
IGROV-1, IGROV1 (OV) cell line, log10 of GI50 in M, read-out: NCI-60 screening: Log(GI50) (converted)
  GI50: 200 nM
IGROV-1, IGROV1, read-out: GI50
  GI50: 200 nM
K562, K-562, read-out: GI50
  GI50: 89 nM
K562, cell line K-562 (LE:K-562), TMI sheet, read-out: NCI-60 screening: Log(GI50) (converted)
  GI50: 89.1 nM
KM12, KM12, read-out: GI50
  GI50: 130 nM
KM12, cell line KM12 (CO:KM12), TMI sheet, read-out: NCI-60 screening: Log(GI50) (converted)
  GI50: 132 nM
KM12, cell line KM12 (CO:KM12), TMI sheet, read-out: NCI-60 screening: Raw GI50
  GI50: 130 nM
LOX IMVI, cell line LOX IMVI (ME:LOX IMVI), TMI sheet, read-out: NCI-60 screening: Log(GI50) (converted)
  GI50: 69.2 nM
LOX IMVI, read-out: GI50
  GI50: 69 nM
M14, M14, read-out: GI50
  GI50: 120 nM
MCF7, MCF7, read-out: GI50
  GI50: 15 nM
MCF7, cell line MCF7 (BR:MCF7), TMI sheet, read-out: NCI-60 screening: Log(GI50) (converted)
  GI50: 14.8 nM
MDA-MB-435, MDA-MB-435, read-out: GI50
  GI50: 150 nM
MDA-MB-435, cell line MDA-MB-435 (ME:MDA-MB-435), TMI sheet, read-out: NCI-60 screening: Log(GI50) (converted)
  GI50: 148 nM
MDA-MB-435, cell line MDA-MB-435 (ME:MDA-MB-435), TMI sheet, read-out: NCI-60 screening: Raw GI50
  GI50: 150 nM
MDA-MB-468, MDA-MB-468, read-out: GI50
  GI50: 37 nM
MOLT-4, MOLT-4, read-out: GI50
  GI50: 63 nM
MOLT-4, cell line MOLT-4 (LE:MOLT-4), TMI sheet, read-out: NCI-60 screening: Log(GI50) (converted)
  GI50: 63.1 nM
Malme-3M, cell line MALME-3M (ME:MALME-3M), TMI sheet, read-out: NCI-60 screening: Log(GI50) (converted)
  GI50: 135 nM
Malme-3M, cell line MALME-3M (ME:MALME-3M), TMI sheet, read-out: NCI-60 screening: Raw GI50
  GI50: 130 nM
Malme-3M, read-out: GI50
  GI50: 130 nM
NCI-H23, NCI-H23, read-out: GI50
  GI50: 19 nM
NCI-H23, cell line NCI-H23 (LC:NCI-H23), TMI sheet, read-out: NCI-60 screening: Log(GI50) (converted)
  GI50: 18.6 nM
NCI-H23, cell line NCI-H23 (LC:NCI-H23), TMI sheet, read-out: NCI-60 screening: Raw GI50
  GI50: 19 nM
NCI-H226, NCI-H226, read-out: GI50
  GI50: 240 nM
NCI-H226, cell line NCI-H226 (LC:NCI-H226), TMI sheet, read-out: NCI-60 screening: Log(GI50) (converted)
  GI50: 245 nM
NCI-H226, cell line NCI-H226 (LC:NCI-H226), TMI sheet, read-out: NCI-60 screening: Raw GI50
  GI50: 240 nM
NCI-H322M, read-out: GI50
  GI50: 50 nM
NCI-H322M, read-out: NCI-60 screening: Log(GI50) (converted)
  GI50: 50.1 nM
NCI-H460, NCI-H460 (LC) cell line, log10 of GI50 in M, read-out: NCI-60 screening: Log(GI50) (converted)
  GI50: 22.4 nM
NCI-H460, NCI-H460, read-out: GI50
  GI50: 22 nM
NCI-H522, NCI-H522 (LC) cell line, log10 of GI50 in M, read-out: NCI-60 screening: Log(GI50) (converted)
  GI50: 55 nM
NCI-H522, NCI-H522, read-out: GI50
  GI50: 56 nM
OVCAR-3, OVCAR-3 (OV) cell line, log10 of GI50 in M, read-out: NCI-60 screening: Log(GI50) (converted)
  GI50: 145 nM
OVCAR-3, OVCAR-3 (OV) cell line, read-out: NCI-60 screening: Raw GI50
  GI50: 140 nM
OVCAR-3, OVCAR-3, read-out: GI50
  GI50: 140 nM
OVCAR-4, OVCAR-4 (OV) cell line, log10 of GI50 in M, read-out: NCI-60 screening: Log(GI50) (converted)
  GI50: 195 nM
OVCAR-4, OVCAR-4, read-out: GI50
  GI50: 190 nM
OVCAR-5, OVCAR-5 (OV) cell line, log10 of GI50 in M, read-out: NCI-60 screening: Log(GI50) (converted)
  GI50: 257 nM
OVCAR-5, OVCAR-5, read-out: GI50
  GI50: 250 nM
OVCAR-8, OVCAR-8 (OV) cell line, log10 of GI50 in M, read-out: NCI-60 screening: Log(GI50) (converted)
  GI50: 91.2 nM
OVCAR-8, OVCAR-8, read-out: GI50
  GI50: 92 nM
PC-3 (PR) cell line, log10 of GI50 in M, read-out: NCI-60 screening: Log(GI50) (converted)
  GI50: 479 nM
